In PubChem BioAssay (NCI):
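The compound was tested at five concentrations on cells cultured in 96-well plates, with a 48-hour exposure period. GI50 is the concentration that inhibits growth by half. TGI marks complete inhibition of growth.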

Key:
Experiment in all cases: NCI anticancer screen, dose series, 48 h
NCI-H226 lung = tested on: NCI-H226 lung
NCI-H23 lung = tested on: NCI-H23 lung
NCI-H460 lung = tested on: NCI-H460 lung
NCI-H522 lung = tested on: NCI-H522 lung
NCI/ADR-RES ovarian = tested on: NCI/ADR-RES ovarian
OVCAR-4 ovarian = tested on: OVCAR-4 ovarian
OVCAR-5 ovarian = tested on: OVCAR-5 ovarian
OVCAR-8 ovarian = tested on: OVCAR-8 ovarian
PC-3 prostate = tested on: PC-3 prostate
RPMI-8226 leukemia = tested on: RPMI-8226 leukemia
RXF 393 renal = tested on: RXF 393 renal
SF-268 CNS = tested on: SF-268 CNS
SF-295 CNS = tested on: SF-295 CNS
SF-539 CNS = tested on: SF-539 CNS
SK-MEL-2 melanoma = tested on: SK-MEL-2 melanoma
SK-MEL-28 melanoma = tested on: SK-MEL-28 melanoma
SK-MEL-5 melanoma = tested on: SK-MEL-5 melanoma
SK-OV-3 ovarian = tested on: SK-OV-3 ovarian
SN12C renal = tested on: SN12C renal
SNB-19 CNS = tested on: SNB-19 CNS
SNB-75 CNS = tested on: SNB-75 CNS
SR leukemia = tested on: SR leukemia
SW-620 colon = tested on: SW-620 colon
T-47D breast = tested on: T-47D breast
TK-10 renal = tested on: TK-10 renal
U251 CNS = tested on: U251 CNS
UACC-257 melanoma = tested on: UACC-257 melanoma
UACC-62 melanoma = tested on: UACC-62 melanoma
UO-31 renal = tested on: UO-31 renal

## N#Cc1cnc2ccc(-c3cnc(N)nc3)cc2c1N1CCc2cc(F)c(Cl)cc21
NCI-H226 lung
  GI50: 555 nM
  TGI: 11300 nM
NCI-H23 lung
  GI50: 1010 nM
  TGI: 9840 nM
NCI-H460 lung
  GI50: 425 nM
  TGI: 11000 nM
NCI-H522 lung
  GI50: 1270 nM
  TGI: 8080 nM
NCI/ADR-RES ovarian
  GI50: 827 nM
  TGI: 25900 nM
OVCAR-4 ovarian
  GI50: 314 nM
  TGI: 7240 nM
OVCAR-5 ovarian
  GI50: 437 nM
  TGI: 11300 nM
OVCAR-8 ovarian
  GI50: 453 nM
  TGI: 13900 nM
PC-3 prostate
  GI50: 445 nM
  TGI: 12300 nM
RPMI-8226 leukemia
  GI50: 325 nM
  TGI: 3190 nM
RXF 393 renal
  GI50: 221 nM
  TGI: 1250 nM
SF-268 CNS
  GI50: 437 nM
  TGI: 5280 nM
SF-295 CNS
  GI50: 311 nM
  TGI: 4490 nM
SF-539 CNS
  GI50: 505 nM
  TGI: 3360 nM
SK-MEL-2 melanoma
  GI50: 531 nM
  TGI: 2020 nM
SK-MEL-28 melanoma
  GI50: 703 nM
  TGI: 6730 nM
SK-MEL-5 melanoma
  GI50: 1220 nM
  TGI: 2520 nM
SK-OV-3 ovarian
  GI50: 391 nM
  TGI: 3690 nM
SN12C renal
  GI50: 395 nM
  TGI: 14700 nM
SNB-19 CNS
  GI50: 964 nM
  TGI: 17200 nM
SNB-75 CNS
  GI50: 144 nM
  TGI: 834 nM
SR leukemia
  GI50: 329 nM
  TGI: > 19900 nM
SW-620 colon
  GI50: 977 nM
  TGI: 10800 nM
T-47D breast
  GI50: 233 nM
TK-10 renal
  GI50: 260 nM
  TGI: 2000 nM
U251 CNS
  GI50: 714 nM
  TGI: 9580 nM
UACC-257 melanoma
  GI50: 1300 nM
  TGI: 6870 nM
UACC-62 melanoma
  GI50: 363 nM
  TGI: 2600 nM
UO-31 renal
  GI50: 142 nM
  TGI: 4640 nM
